What was measured:
Assay in all cases: combination Emax (second highest fraction inhibited in the dose matrix, 72 h); higher = more inhibition; extreme values may be limits of the assay
[1] = system: SW780 (Bladder Carcinoma)
How it was run: (§1)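 Bliss excess equals the observed combination effect minus the expected value EA + EB − EA·EB, where EA and EB are the effects of each agent alone. Combination Emax is the second-highest inhibition within the matrix. Inhibition was scaled from CellTiter-Glo 2.0 luminescence, with 0 set by vehicle wells and 1 by blank wells, after 72 hours of two-drug dosing of cells plated in 1536-well plates.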

[2] = system: KATOIII (Gastric Carcinoma)
How it was run: as §1

[3] = system: SW1783 (Low Grade Glioma)
How it was run: as §1

[4] = system: KARPAS-1106P (B-Cell Non-Hodgkin's Lymphoma)
How it was run: as §1

[5] = system: 697 (B-Lymphoblastic Leukemia)
How it was run: as §1

[6] = system: SW756 (Cervical Carcinoma)
How it was run: as §1

[7] = system: LS-513 (Colorectal Carcinoma)
How it was run: as §1

[8] = system: C3A (Hepatocellular Carcinoma)
How it was run: as §1

[9] = system: SW1990 (Pancreatic Carcinoma)
How it was run: as §1

[10] = system: DOV13 (Ovarian Carcinoma)
How it was run: as §1

[11] = system: SW1088 (Low Grade Glioma)
How it was run: as §1

SN12C (Kidney Carcinoma) = system: SN12C (Kidney Carcinoma)
How it was run: as §1

[12] = system: TE-5 (Esophageal Squamous Cell Carcinoma)
How it was run: as §1

[13] = system: NCI-H1299 (Non-Small Cell Lung Carcinoma)
How it was run: as §1

[14] = system: MDA-MB-157 (Breast Carcinoma)
How it was run: as §1

[15] = system: JiyoyeP-2003 (Burkitt's Lymphoma)
How it was run: as §1

SK-N-FI (Neuroblastoma) = system: SK-N-FI (Neuroblastoma)
How it was run: as §1

[16] = system: MFH-ino (Other Solid Carcinomas)
How it was run: as §1

[17] = system: NCI-H1793 (Lung Adenocarcinoma)
How it was run: as §1

[18] = system: NCI-H1694 (Small Cell Lung Carcinoma)
How it was run: as §1

SMILES	combination Emax [1]	combination Emax [2]	combination Emax [3]	combination Emax [4]	combination Emax [5]	combination Emax [6]	combination Emax [7]	combination Emax [8]	combination Emax [9]	combination Emax [10]	combination Emax [11]	combination Emax (SN12C (Kidney Carcinoma))	combination Emax [12]	combination Emax [13]	combination Emax [14]	combination Emax [15]	combination Emax (SK-N-FI (Neuroblastoma))	combination Emax [16]	combination Emax [17]	combination Emax [18]
C[C@@H](c1ccc2nccn2c1)n1nnc2ncc(-c3cnn(C)c3)nc21 [Savolitinib] + CC1(C)CCC(CN2CCN(c3ccc(C(=O)NS(=O)(=O)c4ccc(NCC5CCOCC5)c([N+](=O)[O-])c4)c(Oc4cnc5[nH]ccc5c4)c3)CC2)=C(c2ccc(Cl)cc2)C1 [Venetoclax] (first compound max 1 µM, 7x7, partner max 1 µM)	0.11	0.337	0.156	0.2	1	0.1	0.0791	0.148	0.225	0.143	0.224	0.219	0.123	0.14	0.11	0.162	0.192	0.171	0.193	0.102
C[C@@H](c1ccc2nccn2c1)n1nnc2ncc(-c3cnn(C)c3)nc21 [Savolitinib] + Cc1c2c(nn1C)CSCc1cc(n(C)n1)CSc1cc(c3ccccc3c1)OCCCc1c(C(=O)O)n(C)c3c-2c(Cl)ccc13 [AZD5991] (first compound max 1 µM, 7x7, partner max 1 µM)	0.164	0.211	0.22	0.734	1	0.128	0.155	0.195	0.127	0.153	0.261	0.197	0.147	0.151	0.639	0.166	0.24	0.207	0.173	0.371
Cn1cnc2c(F)c(Nc3ccc(Br)cc3Cl)c(C(=O)NOCCO)cc21 [Selumetinib] + C=CCn1c(=O)c2cnc(Nc3ccc(N4CCN(C)CC4)cc3)nc2n1-c1cccc(C(C)(C)O)n1 [AZD1775] (first compound max 10 µM, partner max 1 µM)	0.369	0.451	0.392	0.782	1	0.346	0.904	0.777	0.431	0.637	0.55	0.241	0.292	0.652	0.48	0.947	0.69	0.345	0.423	0.371
Cn1cnc2c(F)c(Nc3ccc(Br)cc3Cl)c(C(=O)NOCCO)cc21 [Selumetinib] + CC(C)n1c(=O)n(C)c2cnc3cc(F)c(-c4ccc(OCCCN5CCCCC5)nc4)cc3c21 [AZD1390] (first compound max 10 µM, 7x7, partner max 0.3 µM)	0.381	0.475	0.0665	0.0708	0.373	0.229	0.858	0.412	0.202	0.124	0.14	0.237	0.137	0.23	0.131	0.191	0.435	0.281	0.218	0.206
Cn1cnc2c(F)c(Nc3ccc(Br)cc3Cl)c(C(=O)NOCCO)cc21 [Selumetinib] + CCN(CCO)CCCOc1ccc2c(Nc3cc(CC(=O)Nc4cccc(F)c4)[nH]n3)ncnc2c1 [AZD2811] (first compound max 10 µM, 7x7, partner max 1 µM)	0.435	0.429	0.0665	0.297	1	0.294	0.85	0.494	0.245	0.4	0.424	0.237	0.186	0.363	0.215	0.235	0.455	0.273	0.203	0.385
Cn1cnc2c(F)c(Nc3ccc(Br)cc3Cl)c(C(=O)NOCCO)cc21 [Selumetinib] + C[C@@H]1COCCN1C2=NC(=NC(=C2)C3(CC3)[S@](=N)(=O)C)C4=C5C=CNC5=NC=C4 [AZD6738] (first compound max 10 µM, 7x7, partner max 10 µM)	0.381	0.415	0.362	0.648	1	0.287	0.897	0.759	0.502	0.763	0.65	0.192	0.464	0.543	0.92	0.947	0.746	0.421	0.524	0.728

— the supplement of paper PMC11061612
